# From patent EP0568307A1, “Cosmetic composition containing alpha hydroxy carboxylic acids as preservatives” (priority 1992, dated 1993)
# Tests used:
# Format in all cases: cell-based
# [1] = system: Pseudomonas cepacia; test: Challenge test, repeated inoculation with a bacterium until failure; conditions: Series IV, pH 5.5
# Method: A test was devised to assess the ability of selected hydroxyorganic acids to preserve, against microbial spoilage, compositions according to the invention and, by way of comparison, others containing conventional chemical preservative substances.
# (§1) This test involved incubating under standard conditions test compositions which have been inoculated with a selected bacterium, yeast or a mixture of moulds. […] Accordingly, the higher the number of "challenges", the better is the preservative. substance in preventing or at least delaying microbial spoilage.
# (§2) The micro-organisms selected for this test were: • i) Pseudomonas cepacia - a gram-negative bacterium, • ii) Candida parapsilosis - a yeast, and • iii) Aspergillus niger & Penicillium sp., - a mixture of moulds.
# (§3) The method of testing was as follows: • i) Introduce aseptically 99 ml of test composition into a 250 ml flask and add 1 ml of inoculum of one of the test organisms (see above), to provide a dilution of 10⁶ cells/ml in the composition. • ii) mix and incubate at 28°C for 24 hours. • iii) remove 1 ml of incubated composition from the flask and add to it 9 ml of peptone water/Tween 80 as diluent and mix thoroughly. • iv) place 1 ml of diluted sample into a petri dish and add warm, molten agar (40°C) and mix to distribute culture uniformly and allow to set. • v) incubate plates for 3 days at 28°C and then count colonies and note log reduction of count (due to the presence of the preservative in the original culture composition).
# (§4) The inoculation of the organisms originally introduced into each composition is then repeated at 24 hour intervals, following removal of the first total viable count sample, the plating out and counting procedure being repeated on each occasion. The test is terminated when the samples show a contamination level greater than 10² counts per ml on 2 consecutive days. This point is regarded as the failure point for the composition under test.
# (§5) The greater the number of inoculations of contaminant organisms before this level of contamination is established in the composition, the better the preservative system.
# [2] = system: Aspergillus niger & Penicillium sp.; test: Mould challenge test (mould spore suspension, viable count after 1, 7, 14, 28 days); conditions: pH 5.5
# Method: as §2
# The above procedure applies to the inoculation of the bacterium and the yeast, and this procedure was varied slightly with the mixed culture of moulds as follows: • i) two samples of each test composition (9.9 ml and 9 ml) were transferred to sterile flasks and 0.1 ml or 1 ml of a mould spore suspension (approximately 10⁸ spores per ml) was introduced into the respective samples and thoroughly mixed. The inoculated samples were incubated at 28°C for up to 28 days with 1 ml samples being aseptically removed for the total viable count as outlined above using Sabouraud's dextrose agar after 1, 7, and 28 days. • ii) "Low risk" compositions eliminate mould spores in 1 to 2 days, "medium risk" compositions take 7 to 14 days to eliminate the spores and the "high risk" compositions still have surviving mould spores after 14 days incubation.
# [3] = system: one of the test organisms; test: Challenge test, inoculations to failure, Series V (organism not stated in Table 10); conditions: 1% w/w added to oil-in-water skin cream, pH 5.5
# Method: as §1, §3, §4, §5
# Various preservative materials were added to samples of this base formulation. The resulting compositions were subjected to the mould challenge test, as set out in Table 10 below.
# [4] = Series IV, 0.1 % w/w in water-in-oil cream
# [5] = Series IV, 0.25 % w/w in water-in-oil cream
# [6] = Series IV, 0.5 % w/w in water-in-oil cream
# [7] = Series IV, 0.75 % w/w in water-in-oil cream
# [8] = Series IV, 1 % w/w in water-in-oil cream
# [9] = Series V, 1% w/w added to oil-in-water skin cream
compound,measurement,setting,value
CCCCCCC(O)C(=O)O (stereo not shown) [2-hydroxyoctanoic acid],number of inoculations of bacteria to failure,[1]; 0.1 % w/w in water-in-oil cream,4
same,number of inoculations of bacteria to failure,[1]; 0.25 % w/w in water-in-oil cream,4
same,number of inoculations of bacteria to failure,[1]; 0.5 % w/w in water-in-oil cream,20
same,number of inoculations of bacteria to failure,[1]; 0.75 % w/w in water-in-oil cream,>20
same,number of inoculations of bacteria to failure,[1]; 1 % w/w in water-in-oil cream,>20
same,mould challenge 1%,[2]; [4],++
same,mould challenge 10%,[2]; [4],++
same,mould challenge 1%,[2]; [5],++
same,mould challenge 10%,[2]; [5],++
same,mould challenge 1%,[2]; [6],+
same,mould challenge 10%,[2]; [6],++
same,mould challenge 1%,[2]; [7],+
same,mould challenge 10%,[2]; [7],++
same,mould challenge 1%,[2]; [8],-
same,mould challenge 10%,[2]; [8],-
same,mould challenge 1%,[2]; [9],+
same,No of inoculations to failure,[3],>20
"COCCCCCCCC=CCC(O)C(=O)O (stereo not shown) ['oxa' hydroxy acid, 2-Hydroxy-13-oxa-4-tetradecenoic acid]",preservation against the mould challenge (in words),[2]; Series II,good preservation
"CCCCCCCCCCCC(=O)O [Lauric acid, reference compound]",mould challenge 1%,[2]; [9],++++
same,No of inoculations to failure,[3],1
"CCCCCCCCCCCC(=O)OCC(O)CO (stereo not shown) [Monolaurin, reference compound]",mould challenge 1%,[2]; [9],++++
same,No of inoculations to failure,[3],1
